These are literature values, as cited in article PMC9885524 (Journal of natural products, 2023).

SMILES strings stand for the structures.

The series concerns live SARS-CoV-2. To be noted: read-out: half-maximal effective concentrations against live SARS-CoV-2 in vitro; depending on the SARS-CoV-2 variant.

In the case of `Oc1ccc([C@@H]2c3c(O)cc(O)cc3[C@@H]3c4c(cc(O)cc4[C@H]2[C@@H]2c4cc(O)cc5c4[C@@H](c4cc(O)cc(O)c4[C@H]2c2ccc(O)cc2)[C@H](c2ccc(O)cc2)O5)O[C@H]3c2ccc(O)cc2)cc1` [(−)-hopeaphenol, (−)-Hopeaphenol], the EC50 was 7.5 to 23 µM.
